Data taken from article PMC10254444, “Targeting Myeloperoxidase Activity and Neutrophil ROS Production to Modulate Redox Process: Effect of Ellagic Acid and Analogues” (Molecules, 2023).
Entries after “also recorded” stand apart in the source; their conditions may differ.

Assays:
[1] = ABTS radical cation assay
Method: The ABTS assay was based on the method described by Re et al.. For the generation of ABTS^•+ radicals, sodium persulfate (2.45 mM) aqueous solution was mixed with ABTS (7 mM) and incubated overnight in the dark to obtain a dark-colored solution. Stock solution of ABTS^•+ was then diluted by adding pure methanol (100%) to obtain an absorbance of 0.70 (±0.02) at 734 nm at 30 °C. To obtain more repetition, the ABTS assay was performed using a microplate reader (ThermoLabsystem, Finland). An aliquot of 2 µL of the tested compound (EA or analogue) was added to 198 µL of ABTS^•+, and the decrease in absorbance was monitored at 740 nm after 30 min [32]. During this reaction, the blue-green ABTS radical cation is converted back into its colorless neutral form in the presence of the potential antioxidant molecule. A control consisted of 2 µL of DMSO in 198 µL of ABTS^•+ solution. The reducing capacity was determined according to the formula:% inhibition = (Acontrol − ASample) × 100/AControl(1)

[2] = target: T1, human myeloperoxidase (MPO) (Homo sapiens, UniProt P05164); experiment: MPO activity by SIEFED assay; assay type: biochemical
T1 construct: purchased Calbiochem Millipore
T1 sequence (P05164 49-745): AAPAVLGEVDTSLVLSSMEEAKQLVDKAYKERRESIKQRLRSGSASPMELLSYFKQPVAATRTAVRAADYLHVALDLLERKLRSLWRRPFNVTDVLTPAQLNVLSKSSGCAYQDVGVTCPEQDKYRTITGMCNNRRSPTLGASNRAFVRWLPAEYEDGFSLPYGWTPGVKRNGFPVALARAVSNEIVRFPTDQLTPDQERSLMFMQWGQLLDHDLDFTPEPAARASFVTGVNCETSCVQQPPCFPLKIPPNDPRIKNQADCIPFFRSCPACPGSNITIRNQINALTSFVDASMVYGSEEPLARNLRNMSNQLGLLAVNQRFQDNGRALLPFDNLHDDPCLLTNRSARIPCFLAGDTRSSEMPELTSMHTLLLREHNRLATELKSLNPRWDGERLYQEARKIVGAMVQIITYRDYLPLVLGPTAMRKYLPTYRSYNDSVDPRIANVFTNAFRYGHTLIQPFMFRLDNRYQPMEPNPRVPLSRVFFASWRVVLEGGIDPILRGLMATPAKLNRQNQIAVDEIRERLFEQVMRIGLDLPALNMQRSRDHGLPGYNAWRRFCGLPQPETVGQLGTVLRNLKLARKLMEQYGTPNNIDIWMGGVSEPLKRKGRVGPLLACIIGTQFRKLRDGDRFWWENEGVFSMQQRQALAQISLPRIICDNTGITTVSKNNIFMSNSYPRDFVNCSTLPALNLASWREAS
Method: Measurement of the peroxidase activity of MPO was performed by a classical enzymatic assay and by SIEFED assay as described by Nyssen et al.. The MPO solution was prepared with purified human MPO in dilution buffer (PBS 20 mM at pH 7.4 with 5 g/L BSA and 0.1% Tween-20). The solutions of EA or analogue, at final concentrations ranging from 10^−8 M to 10^−5 M, were incubated for 10 min with human MPO at a final concentration of 5 mU/mL before further use. The revelation of MPO activity was performed by monitoring the enzyme-catalyzed oxidation of Amplex Red in the presence of H2O2 (10 μM) and nitrite (4.5 mM) in phosphate buffer at pH 7.4.
Samples with MPO and various concentrations of […] were prepared and incubated as with the classical assay. An amount of 100 μL of each mixture (MPO alone or MPO + EA/DMSO) was then loaded into the wells of a SIEFED microtiter plate coated with rabbit polyclonal antibodies (3 μg/mL) against human MPO and incubated for 2 h at 37 °C in darkness. After washing up the wells, the activity of the enzyme captured by the antibodies was measured by adding 10 μL sodium nitrite solution (4.5 mM, final concentration) and 100 μL of a reactional solution containing 10 μM H2O2 and 40 μM Amplex® in phosphate buffer (50 mM) at pH 7.4. The oxidation of Amplex® Red into the fluorescent adduct resorufin (λexcitation = 544 nm; λemission = 590 nm) was monitored for 30 min at 37 °C with a fluorescent plate reader (Fluoroskan Ascent, Fisher Scientific). As for the MPO direct assay, a control assay set as the relative value of MPO activity was performed with purified MPO in the presence of PBS instead of the samples of EA or analogue dissolved in DMSO. In this SIEFED assay, MPO was bonded by the antibodies into the wells, and EA/analogue was discarded in the washing step before starting the measurement of the enzymatic activity. For both MPO assays, the inhibition percentage was calculated using a similar formula (Equation (1)) as described above.

[3] = system: PMA-activated neutrophils; experiment: ROS production by PMA-activated neutrophils (L012 chemiluminescence); assay type: cell-based, equine
Method: Equine neutrophils were isolated from whole blood using EDTA disodium salt (1.6 mg/mL) as an anticoagulant. The blood was drawn from the jugular vein of healthy horses bred and fed under identical conditions without medical treatment. All the experiments were realized with the approval of the ethics committee of the Faculty of Veterinary Medicine of the University of Liege (agreement number 1474). Briefly, the neutrophils were isolated at room temperature (18–22 °C) by centrifugation (400× g; 45 min; 20 °C) on a discontinuous Percoll density gradient according to the method previously described. The cells were gently collected and washed with two volumes of physiological saline solution. After the supernatant removal, the cell pellets were re-suspended in 2 mL PBS and counted for further use.
The ROS produced by PMA-activated neutrophils were measured by L012-enhanced chemiluminescence (CL) under an adaptation of the method previously described by Benbarek et al. and Derochette et al.. Neutrophil suspensions were distributed in the wells (neutrophils/well, 143 μL PBS) of a 96-well microtiter plate (White Combiplate 8, Fisher Scientific) and incubated for 10 min at 37 °C with 2 μL of EA or analogue to reach final concentrations of 10^−8 M, 10^−7 M, 10^−6 M, and 10^−5 M. After incubation, 25 μL CaCl2 (10 mM) and 20 μL L-012 (10^−4 M) were added into the wells (final volume of 200 μL). […] A control was performed with neutrophils activated with PMA (positive Ctrl) in the presence of PBS instead of ellagic acid analogue. Another control was performed with PMA-activated neutrophils in the presence of the vehicle solution of ellagic acid or analogue (1% DMSO) (DMSO, final concentration) and was taken as 100% CL response. The negative control was performed with unstimulated neutrophils (NA) with the CL probe alone. The inhibition percentage was calculated using a similar formula (Equation (1)) as described above.

SMILES | IC50 [1] [µM] | MPO activity, SIEFED assay (in words) [2] | Inhibition of neutrophil ROS production (in words) [3] | ABTS activity (in words) [1] | Inhibition of neutrophil ROS production ([3]; highest concentration) [%]
CCOC1Oc2cc(C(=O)OC)cc(O)c2O1 (stereo not shown) [compound 11, methyl 2-ethoxy-7-hydroxybenzo[d][1,3]dioxole-5-carboxylate] | 6.56 ± 0.37 | activator of MPO activity; also recorded: promote, rather than inhibit, MPO activity | good inhibitory effect | – | –
CN(C)C(=O)Oc1cc2c(=O)oc3c(OC(=O)N(C)C)c(OC(=O)N(C)C)cc4c(=O)oc(c1OC(=O)N(C)C)c2c34 [compound 6, Sevellagic acid] | – | weak activity or the absence of inhibition activity | less active than all the other tested compounds | no significant activity | 58
